Test results taken from the NIST ThermoML archive (doi:10.1021/je060124c).

Settings: Liquid, Capillary tube (Ostwald / Ubbelohde) method

O [water]
viscosity [mPa·s]
Settings	296.56 K	337.85 K	369.15 K	398.75 K	436.34 K	482.43 K	521.56 K	580.74 K
10000 kPa	0.9188	0.4362	0.296	0.2229	0.168	0.1308	0.1089	0.0838
30000 kPa	0.9185	0.4437	0.3028	0.2295	0.1743	0.1341	0.1143	0.0953
